For 34 molecules, residual activity, Ki and inhibition results are on record in ChEMBL document CHEMBL1136063, “Oxal hydroxamic acid derivatives with inhibitory activity against matrix metalloproteinases” (Bioorg Med Chem Lett, 2002).

In assay [1] the target is T1, Neutrophil collagenase (Homo sapiens, UniProt P22894). The experiment in a line: Percent remaining enzyme activity (RA) in neutrophil collagenase (matrix metalloprotease-8). The arrangement: concentration or dose not given beside the values.
Target sequence in this assay (P22894 101-467 limits assumed): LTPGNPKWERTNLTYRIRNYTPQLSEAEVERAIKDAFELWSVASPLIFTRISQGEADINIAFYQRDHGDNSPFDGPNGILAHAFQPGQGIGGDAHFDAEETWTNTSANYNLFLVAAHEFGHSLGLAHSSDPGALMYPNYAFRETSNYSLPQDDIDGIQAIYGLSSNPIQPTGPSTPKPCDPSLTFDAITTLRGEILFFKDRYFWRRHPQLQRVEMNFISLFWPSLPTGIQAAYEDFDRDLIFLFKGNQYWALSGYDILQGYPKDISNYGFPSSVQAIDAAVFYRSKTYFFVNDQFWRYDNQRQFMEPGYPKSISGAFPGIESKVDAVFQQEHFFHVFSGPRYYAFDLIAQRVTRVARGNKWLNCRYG
Assay [2] concerns the target T2, Matrix metalloproteinase-9 (Homo sapiens, UniProt P14780). The experiment in a line: Percent remaining enzyme activity (RA) in human gelatinase B (matrix metalloprotease-9). Further details: concentration or dose not given beside the values.
Assay [3] concerns the target T2, Matrix metalloproteinase-9. The experiment in a line: Inhibitory activity against human gelatinase B (matrix metalloprotease-9).
Assay [4] concerns the target T3, Matrix metalloproteinase-14 (Homo sapiens, UniProt P50281). The experiment in a line: Percent remaining enzyme activity (RA) in catalytic domains of the membrane type MT1-MMP (matrix metalloprotease-14). The arrangement: concentration or dose not given beside the values.
Assay [5] concerns the target T1, Neutrophil collagenase. Put plainly: Tested for its inhibitory activity against neutrophil collagenase (Matrix metalloprotease-8).
Target sequence in this assay (P22894 whole entry): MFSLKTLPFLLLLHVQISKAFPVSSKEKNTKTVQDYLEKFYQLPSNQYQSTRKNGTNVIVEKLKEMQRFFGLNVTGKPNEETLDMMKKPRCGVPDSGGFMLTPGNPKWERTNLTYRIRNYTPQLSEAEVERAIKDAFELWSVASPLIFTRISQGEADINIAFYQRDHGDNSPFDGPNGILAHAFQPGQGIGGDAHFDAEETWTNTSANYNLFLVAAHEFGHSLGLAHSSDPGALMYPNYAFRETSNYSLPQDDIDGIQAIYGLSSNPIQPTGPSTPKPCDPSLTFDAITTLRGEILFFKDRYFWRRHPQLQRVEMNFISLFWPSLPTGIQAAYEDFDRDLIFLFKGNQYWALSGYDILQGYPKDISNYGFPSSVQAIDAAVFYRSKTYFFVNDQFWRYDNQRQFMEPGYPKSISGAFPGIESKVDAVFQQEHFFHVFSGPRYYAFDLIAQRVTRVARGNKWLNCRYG
Assay [6] concerns the target T3, Matrix metalloproteinase-14. The experiment in a line: (§1) Inhibition of membrane type MT1-MMP (Matrix metalloprotease-14)catalytic domain.
The target is the same in assay [7]. The description is as §1. As to conditions: concentration not given here.

T2 sequence (P14780 whole entry): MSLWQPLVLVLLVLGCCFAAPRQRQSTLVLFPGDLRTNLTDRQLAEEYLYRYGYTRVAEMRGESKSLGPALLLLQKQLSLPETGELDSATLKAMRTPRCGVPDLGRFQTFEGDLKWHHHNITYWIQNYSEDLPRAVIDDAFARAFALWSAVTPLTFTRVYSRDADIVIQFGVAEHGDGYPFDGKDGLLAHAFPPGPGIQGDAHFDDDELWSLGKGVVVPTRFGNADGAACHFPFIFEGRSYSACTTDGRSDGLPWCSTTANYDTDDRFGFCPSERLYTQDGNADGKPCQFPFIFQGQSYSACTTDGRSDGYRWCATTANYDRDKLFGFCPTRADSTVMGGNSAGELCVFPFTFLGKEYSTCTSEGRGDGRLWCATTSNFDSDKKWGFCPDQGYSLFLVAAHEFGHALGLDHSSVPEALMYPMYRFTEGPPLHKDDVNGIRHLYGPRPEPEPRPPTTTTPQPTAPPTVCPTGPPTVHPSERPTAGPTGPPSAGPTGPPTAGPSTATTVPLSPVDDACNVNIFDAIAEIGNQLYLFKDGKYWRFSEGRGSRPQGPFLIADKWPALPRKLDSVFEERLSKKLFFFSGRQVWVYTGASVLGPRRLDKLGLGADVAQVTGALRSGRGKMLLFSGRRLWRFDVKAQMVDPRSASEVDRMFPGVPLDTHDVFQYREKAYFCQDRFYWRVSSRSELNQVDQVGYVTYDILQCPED

Broadly, the residual activity is what remains of the control signal, in per cent. In general, Ki refers to the equilibrium dissociation constant of an inhibitor or competing ligand from its target. Consider `CNC(=O)[C@H](Cc1ccc(OCc2ccccc2)cc1)NC(=O)C(=O)NO`, for which the residual activity is 4% on Neutrophil collagenase [1], 1% in assay [2] and 53% in assay [4]. The results for the Ki (in assay [3]; at Neutrophil collagenase [5]) were 2 µM and 1.5 µM, respectively.

For `CN(C)C(=O)[C@H](Cc1ccc(COc2ccccc2)cc1)NC(=O)C(=O)NO`, the residual activity at Neutrophil collagenase [1] worked out at 43%; in assay [2] it was 7%; in assay [4], 37%. Also, the Ki in assay [3] is 3 µM; at Neutrophil collagenase [5], 22 µM.

As for `C[C@H](NC(=O)C(=O)NO)c1ccc2ccccc2c1`, the residual activity on Neutrophil collagenase [1] was found to be 89%; in assay [2], 67%; in assay [4], 80%.

Take `CCCC[C@H](NC(=O)C(=O)NO)C(=O)N[C@H](Cc1ccc(OCc2ccccc2)cc1)C(=O)N(C)C`: the residual activity came out at 34% at Neutrophil collagenase [1], 13% in assay [2] and 29% in assay [4]. Further, the Ki in assay [6] was found to be 33 µM; in assay [3], 7.5 µM.

Regarding `C[C@H](NC(=O)[C@H](Cc1cccc2ccccc12)NC(=O)C(=O)NO)c1ccccc1`, the residual activity on Neutrophil collagenase [1] was 0%; in assay [2], 1%. Moreover, the Ki in assay [6] stood at 29 µM; in assay [3], 0.15 µM; at Neutrophil collagenase [5] it was 0.3 µM.

Take `CN(C)C(=O)[C@H](COCc1ccccc1)NC(=O)C(=O)NO`: the residual activity at Neutrophil collagenase [1] was 56%; in assay [2], 40%; in assay [4], 41%.

As for `O=C(NO)C(=O)NCCC(NC(=O)C(=O)NO)C1CCCCC1` (centres undefined), the figures for the residual activity (at Neutrophil collagenase [1]; in assay [2]; in assay [4]) were 39%, 5% and 48%, respectively.

For the molecule `CN(C)C(=O)[C@H](Cc1c[nH]c2ccccc12)NC(=O)C(=O)NO`, the residual activity on Neutrophil collagenase [1] is 44%; in assay [2], 25%; in assay [4], 33%. In addition, the Ki in assay [6] was determined as 15 µM; in assay [3], 4.4 µM; on Neutrophil collagenase [5] it was 28 µM.

`CC(C)C[C@H](NC(=O)C(=O)NO)C(=O)N[C@H](C)c1ccccc1`: the residual activity at Neutrophil collagenase [1] was 74%; in assay [2] it was 60%; in assay [4], 79%.

For the molecule `O=C(NO)C(=O)N[C@@H](Cc1ccc(COc2ccccc2)cc1)C(=O)NO`, the values for the residual activity (at Neutrophil collagenase [1]; in assay [2]; in assay [4]) were 5%, 2% and 23%, respectively.

As to `C[C@H](NC(=O)[C@H](Cc1ccc(O)cc1)NC(=O)C(=O)NO)c1ccccc1`, the residual activity at Neutrophil collagenase [1] was 0%; in assay [2], 0%; in assay [4] it was 54%. For the same molecule, the Ki in assay [3] is 0.6 µM; on Neutrophil collagenase [5], 0.25 µM.

For the molecule `CN(C)C(=O)[C@@H](Cc1ccc(OCc2ccccc2)cc1)NC(=O)[C@H](Cc1ccccc1)NC(=O)C(=O)NO`, the residual activity at Neutrophil collagenase [1] turned out to be 10%; in assay [2] it was 3%; in assay [4], 5%. The figures for the Ki in assay [6] and in assay [3] were 1.4 µM and 1 µM, respectively.

With `C[C@H](NC(=O)[C@H](Cc1ccc(NC(=O)OCc2ccccc2)cc1)NC(=O)C(=O)NO)c1ccccc1`, the figures for the residual activity (on Neutrophil collagenase [1]; in assay [2]; in assay [4]) were 32%, 22% and 76%, respectively.

For the molecule `C[C@H](NC(=O)[C@H](Cc1ccccc1)NC(=O)C(=O)NO)c1ccccc1`, the figures for the residual activity (on Neutrophil collagenase [1]; in assay [2]; in assay [4]) were 1%, 1% and 36%, respectively. Besides, the Ki was 14 µM in assay [6], 0.9 µM in assay [3] and 0.43 µM on Neutrophil collagenase [5].

Turning to `CC(OCc1ccccc1)[C@H](NC(=O)C(=O)NO)C(=O)N[C@@H](C)c1ccccc1` (some centres undefined), the residual activity came to 8% on Neutrophil collagenase [1], 11% in assay [2] and 71% in assay [4]. The results for the Ki (in assay [3]; on Neutrophil collagenase [5]) were 3.2 µM and 3 µM, respectively.

As to `O=C(NO)C(=O)NCCN(C(=O)C(=O)NO)c1cccc2ccccc12`, the residual activity stood at 14% on Neutrophil collagenase [1], 0% in assay [2] and 20% in assay [4]. The molecule further had an inhibitory constant (Ki) in assay [3] of 0.1 µM.

In the case of `C[C@H](NC(=O)[C@H](Cc1c[nH]c2ccccc12)NC(=O)C(=O)NO)c1ccccc1`, the residual activity at Neutrophil collagenase [1] came to 2%; in assay [2], 1%; in assay [4] it was 36%. The values for the Ki (in assay [3]; on Neutrophil collagenase [5]) were 0.1 µM and 0.4 µM, respectively.

For the molecule `C[C@H](NC(=O)[C@H](Cc1ccc2ccccc2c1)NC(=O)C(=O)NO)c1ccccc1`, the results for the residual activity (on Neutrophil collagenase [1]; in assay [2]; in assay [4]) were 4%, 5% and 37%, respectively. Moreover, the Ki came to 0.5 µM in assay [3] and 1 µM at Neutrophil collagenase [5].

As for `CN(C)C(=O)[C@H](Cc1ccccc1)NC(=O)C(=O)NO`, the residual activity on Neutrophil collagenase [1] came out at 48%; in assay [2], 25%; in assay [4], 15%. Further, the Ki in assay [6] is 9.5 µM; in assay [3], 14 µM; on Neutrophil collagenase [5], 38 µM.

As for `O=C(NO)C(=O)NCCc1c[nH]c2ccc(Cl)cc12`, the figures for the residual activity (on Neutrophil collagenase [1]; in assay [2]; in assay [4]) were 15%, 2% and 35%, respectively. Moreover, the results for the inhibition constant (Ki) (in assay [6]; in assay [3]; on Neutrophil collagenase [5]) were 35 µM, 0.35 µM and 14 µM, respectively.

In the case of `CC(C)C[C@H](NC(=O)C(=O)NO)C(=O)N(C)C`, the residual activity at Neutrophil collagenase [1] was 72%; in assay [2] it was 55%; in assay [4], 61%.

The inhibition is the share of the control response that was lost under treatment. As for `C[C@H](NC(=O)C(=O)NO)C(=O)N[C@@H](C)c1ccccc1`, the residual activity was 9% at Neutrophil collagenase [1] and 35% in assay [2]. The inhibition constant (Ki) in assay [6] was determined as 180 µM; in assay [3], 9 µM; on Neutrophil collagenase [5], 6 µM. This molecule also came in with an inhibition in assay [7] of 80%.

Regarding `C[C@H](NC(=O)[C@H](CC(=O)OCc1ccccc1)NC(=O)C(=O)NO)c1ccccc1`, the residual activity on Neutrophil collagenase [1] was found to be 1%; in assay [2], 3%; in assay [4] it was 53%. For the same molecule, the Ki in assay [3] is 0.6 µM.

As for `CN(C)C(=O)[C@H](Cc1cccc2ccccc12)NC(=O)C(=O)NO`, the residual activity at Neutrophil collagenase [1] worked out at 47%; in assay [2] it was 15%; in assay [4], 26%. Moreover, the Ki in assay [3] worked out at 8.2 µM.

For `CCCCC(CC)COCCCNC(=O)C(=O)NO` (centres undefined), the residual activity was 12% on Neutrophil collagenase [1], 3% in assay [2] and 14% in assay [4]. The results for the Ki (in assay [6]; in assay [3]; on Neutrophil collagenase [5]) were 9 µM, 0.25 µM and 7 µM, respectively.

On to `CN(C)C(=O)[C@H](Cc1ccc2ccccc2c1)NC(=O)C(=O)NO`, for which the residual activity on Neutrophil collagenase [1] turned out to be 15%; in assay [2], 19%; in assay [4], 30%. In addition, the Ki in assay [3] came out at 44 µM; on Neutrophil collagenase [5], 6 µM.

With `C[C@H](NC(=O)[C@H](COCc1ccccc1)NC(=O)C(=O)NO)c1ccccc1`, the residual activity at Neutrophil collagenase [1] was 1%; in assay [2], 6%; in assay [4] it was 19%. Moreover, the values for the Ki in assay [6] and in assay [3] were 11 µM and 3.3 µM, respectively.

Regarding `CC(C)C[C@H](NC(=O)C(=O)NO)C(=O)N[C@@H](C)c1ccccc1`, the residual activity at Neutrophil collagenase [1] worked out at 3%; in assay [2], 9%; in assay [4], 54%. In addition, the Ki in assay [6] came out at 20 µM; in assay [3], 5.5 µM; on Neutrophil collagenase [5], 1.7 µM.

For the molecule `C[C@@H](NC(=O)C(=O)NO)c1ccc2ccccc2c1`, the residual activity on Neutrophil collagenase [1] was 43%; in assay [2], 7%; in assay [4], 54%. Also, the affinity in assay [3] corresponds to a Ki of 3.3 µM.

For `C[C@H](NC(=O)[C@H](Cc1ccc(NC(=O)Nc2ccccc2)cc1)NC(=O)C(=O)NO)c1ccccc1`, the figures for the residual activity (on Neutrophil collagenase [1]; in assay [2]; in assay [4]) were 6%, 5% and 74%, respectively. For the same molecule, the Ki was determined as 0.8 µM in assay [3] and 1 µM on Neutrophil collagenase [5].

Turning to `C[C@H](NC(=O)[C@H](Cc1ccc(OCc2ccccc2)cc1)NC(=O)C(=O)NO)c1ccccc1`, the residual activity at Neutrophil collagenase [1] turned out to be 5%; in assay [2] it was 11%; in assay [4], 69%.

Consider `CC(NC(=O)[C@H](Cc1ccccc1)NC(=O)C(=O)NO)c1cccc2ccccc12` (some centres undefined), for which the residual activity on Neutrophil collagenase [1] stood at 5%; in assay [2], 2%; in assay [4] it was 42%.

Turning to `CC(OCc1ccccc1)[C@H](NC(=O)C(=O)NO)C(=O)N(C)C` (some centres undefined), the figures for the residual activity (on Neutrophil collagenase [1]; in assay [2]; in assay [4]) were 67%, 18% and 66%, respectively. The Ki in assay [3] is 4 µM; on Neutrophil collagenase [5] it was 75 µM.

As to `O=C(NO)C(=O)NCCc1c[nH]c2ccccc12`, the residual activity at Neutrophil collagenase [1] was 18%; in assay [2] it was 3%; in assay [4] it was 48%. In addition, the Ki in assay [3] came out at 0.8 µM.
